Results from US9440957B2, “Compounds and compositions for modulating EGFR Activity” (Novartis AG, priority 2012, dated 2016).
Read-outs that look alike come from different tables or passages of the source.

Experiments:
H1975 (EGFR L858/T790M) = H1975 (EGFR L858/T790M) (Homo sapiens, UniProt P00533, L858R/T790M); test: EGFR target modulation in H1975 cell line (phospho-EGFR Y1173 ELISA); format: cell-based
Outline: (§1)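 Readout: luminescent pY1173-EGFR sandwich ELISA on cell lysates. Treatment: compound, 3 h, 37 °C.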

H3255 (EGFR L858R) = H3255 (EGFR L858R) (Homo sapiens, UniProt P00533, L858R); test: EGFR target modulation in H3255 cell line (phospho-EGFR Y1173 ELISA); format: cell-based
H3255 (EGFR L858R), sequence (P00533 25-1210 L858R): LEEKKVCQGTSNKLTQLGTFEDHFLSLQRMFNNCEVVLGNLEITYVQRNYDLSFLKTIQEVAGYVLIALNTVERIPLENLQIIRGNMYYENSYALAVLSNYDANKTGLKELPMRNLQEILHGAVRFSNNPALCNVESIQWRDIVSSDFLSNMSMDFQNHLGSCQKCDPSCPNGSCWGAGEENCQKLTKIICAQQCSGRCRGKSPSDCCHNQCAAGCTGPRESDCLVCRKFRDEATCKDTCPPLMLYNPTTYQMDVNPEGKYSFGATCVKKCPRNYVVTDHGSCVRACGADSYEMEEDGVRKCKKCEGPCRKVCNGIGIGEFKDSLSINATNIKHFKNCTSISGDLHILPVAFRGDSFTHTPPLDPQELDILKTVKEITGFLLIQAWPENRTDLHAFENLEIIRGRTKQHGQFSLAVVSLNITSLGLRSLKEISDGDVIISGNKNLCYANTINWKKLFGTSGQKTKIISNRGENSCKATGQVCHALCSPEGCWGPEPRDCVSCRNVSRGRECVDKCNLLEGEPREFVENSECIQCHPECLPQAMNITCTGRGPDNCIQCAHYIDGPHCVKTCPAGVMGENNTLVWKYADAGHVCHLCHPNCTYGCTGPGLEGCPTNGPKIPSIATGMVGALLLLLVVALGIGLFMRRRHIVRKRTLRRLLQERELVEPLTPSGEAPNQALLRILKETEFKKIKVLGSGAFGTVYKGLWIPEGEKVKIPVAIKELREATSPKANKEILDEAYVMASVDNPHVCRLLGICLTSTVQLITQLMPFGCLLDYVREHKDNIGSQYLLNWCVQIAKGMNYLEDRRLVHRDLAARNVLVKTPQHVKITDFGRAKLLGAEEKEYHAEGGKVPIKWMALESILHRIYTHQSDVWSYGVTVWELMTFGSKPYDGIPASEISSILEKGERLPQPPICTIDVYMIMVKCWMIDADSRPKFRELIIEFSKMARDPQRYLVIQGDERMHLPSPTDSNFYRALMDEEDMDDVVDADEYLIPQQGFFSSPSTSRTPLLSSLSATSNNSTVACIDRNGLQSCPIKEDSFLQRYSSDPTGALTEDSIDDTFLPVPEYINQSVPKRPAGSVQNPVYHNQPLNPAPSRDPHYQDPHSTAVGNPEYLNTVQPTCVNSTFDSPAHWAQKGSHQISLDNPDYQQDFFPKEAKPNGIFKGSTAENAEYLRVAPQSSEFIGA
Outline: as §1

EGFR(L858R/T790M) = biological target: T1, EGFR(L858R/T790M) (Homo sapiens, UniProt P00533, L858R/T790M); test: EGFR biochemical assay (HTRF), IC50 determinations
T1 construct: purchased from Carna (GST-a.a. 669-1210)
T1 sequence (P00533 669-1210 T790M/L858R): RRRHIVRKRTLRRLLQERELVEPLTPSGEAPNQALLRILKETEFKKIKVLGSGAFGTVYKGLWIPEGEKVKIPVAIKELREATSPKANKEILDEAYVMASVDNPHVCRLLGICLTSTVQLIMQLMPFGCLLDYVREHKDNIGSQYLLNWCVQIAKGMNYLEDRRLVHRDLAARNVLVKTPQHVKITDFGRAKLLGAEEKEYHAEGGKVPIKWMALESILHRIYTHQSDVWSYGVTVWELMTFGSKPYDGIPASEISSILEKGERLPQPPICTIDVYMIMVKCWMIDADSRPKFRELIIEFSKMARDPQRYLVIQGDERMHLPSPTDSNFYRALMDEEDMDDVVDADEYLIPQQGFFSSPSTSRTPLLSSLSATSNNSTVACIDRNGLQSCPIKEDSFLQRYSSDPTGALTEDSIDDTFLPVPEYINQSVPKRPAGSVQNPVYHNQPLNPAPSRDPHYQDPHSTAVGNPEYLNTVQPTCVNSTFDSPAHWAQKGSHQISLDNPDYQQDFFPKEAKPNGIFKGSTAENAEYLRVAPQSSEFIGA
Outline: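 Two formats were run: compound preincubated at room temperature with enzyme and biotin-TK peptide before ATP starts the reaction, or no preincubation with enzyme added last. Reactions ran 60 min at room temperature and were stopped with EDTA. Phosphopeptide was read by HTRF (PT66K/SAXL, 1 h).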

HaCaT (EGFR WT) = HaCaT (EGFR WT) (Homo sapiens, UniProt P00533); test: EGFR target modulation in HaCaT (EGFR-WT) cell line (phospho-EGFR Y1173 ELISA); format: cell-based; settings: value in parentheses
HaCaT (EGFR WT), sequence (P00533 25-1210): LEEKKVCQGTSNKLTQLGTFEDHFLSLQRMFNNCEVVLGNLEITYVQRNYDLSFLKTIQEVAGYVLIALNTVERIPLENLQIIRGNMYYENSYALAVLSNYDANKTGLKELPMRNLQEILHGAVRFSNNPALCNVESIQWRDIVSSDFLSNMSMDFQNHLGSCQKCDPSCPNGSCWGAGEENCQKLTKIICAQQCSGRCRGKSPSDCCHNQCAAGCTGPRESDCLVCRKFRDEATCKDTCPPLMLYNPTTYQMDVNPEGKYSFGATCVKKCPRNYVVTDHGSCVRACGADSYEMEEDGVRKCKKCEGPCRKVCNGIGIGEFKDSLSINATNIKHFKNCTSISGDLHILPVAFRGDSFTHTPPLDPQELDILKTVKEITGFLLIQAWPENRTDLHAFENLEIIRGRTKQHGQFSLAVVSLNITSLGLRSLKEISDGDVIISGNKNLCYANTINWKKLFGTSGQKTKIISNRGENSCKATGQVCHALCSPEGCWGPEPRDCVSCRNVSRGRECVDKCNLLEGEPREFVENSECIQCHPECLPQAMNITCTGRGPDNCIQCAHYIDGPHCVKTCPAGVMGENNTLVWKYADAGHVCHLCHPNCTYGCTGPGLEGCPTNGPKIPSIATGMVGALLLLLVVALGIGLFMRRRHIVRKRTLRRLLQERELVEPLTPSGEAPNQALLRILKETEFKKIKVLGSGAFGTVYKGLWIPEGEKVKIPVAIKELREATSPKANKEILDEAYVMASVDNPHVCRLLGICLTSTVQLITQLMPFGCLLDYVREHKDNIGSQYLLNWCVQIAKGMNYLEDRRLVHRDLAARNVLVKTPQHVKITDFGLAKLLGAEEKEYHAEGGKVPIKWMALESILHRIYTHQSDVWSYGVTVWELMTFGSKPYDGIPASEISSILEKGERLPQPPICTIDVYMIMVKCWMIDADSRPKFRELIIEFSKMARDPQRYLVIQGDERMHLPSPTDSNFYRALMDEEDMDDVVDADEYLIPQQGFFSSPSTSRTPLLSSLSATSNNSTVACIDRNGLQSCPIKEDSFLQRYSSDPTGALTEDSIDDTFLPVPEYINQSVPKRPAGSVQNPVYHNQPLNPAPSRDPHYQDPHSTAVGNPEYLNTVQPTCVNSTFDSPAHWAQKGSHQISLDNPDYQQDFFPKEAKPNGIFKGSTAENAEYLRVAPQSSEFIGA
Method: EGFR Target Modulation in HaCaT (EGFR-WT) Cell Line Tissue Culture. […] The serial diluted compounds were transferred to the plate containing cells by using a 50 nl Pin Head device (Perkin Elmer) and the cells were placed back in the incubator for 3 hours. […] Phospho-EGFR ([…]) ELISA. Solid white high-binding ELISA plates (Greiner #781074) were coated with 5 ug/ml anti-EGFR capture antibody (R&D Systems #AF231) overnight in 50 mM carbonate/bicarbonate pH 9.5 buffer. […] Wash steps were carried out with a Bio-Tek ELx405 SelectTM using 4 cycles of 100 ul TBS-T (20 mM Tris, 137 mM NaCl, 0.05% Tween-20) per well. […] Lysis was allowed to occur for 20 minutes on ice. A 25 ul aliquot was added to each well of the blocked ELISA plate and incubated overnight at 4° C. with gentle shaking. […] After washing, 1:2,000 anti-rabbit-HRP (Cell Signaling #7074) in 0.2% BSA/TBS-T was added and incubated for 1 hour at room temperature. Chemiluminescent detection was carried out with SuperSignal ELISA Pico substrate (ThermoScientific #37069). Signal was read on EnVision plate reader using built-in UltraLUM setting. Data Analysis. Control cells treated with EGF were set to 100% maximum response. […] With these parameters, the IC50's for each compound in each cell line was calculated using non-linear curve fitting analysis.

HCC827 (Del E746-A750) = HCC827 (Del E746-A750) (Homo sapiens, UniProt P00533, DEL746-750); test: EGFR target modulation in HCC827 cell line (phospho-EGFR Y1173 ELISA); format: cell-based
Method: EGFR Target Modulation in H1975, H3255 and HCC827 Cell Lines Tissue Culture. Cells were maintained in 10% FBS/RPMI supplemented with 100 μg/ml Penicillin/Streptomycin (Hyclone #SH30236.01). […] The cells were allowed to incubate overnight in a 37° C., 5% CO2 humidified tissue culture incubator. […] The serial diluted compounds were transferred to the plate containing cells by using a 50 nl Pin Head device (Perkin Elmer) and the cells were placed back in the incubator for 3 hours. Phospho-EGFR ([…]) Target Modulation Assay. The media was reduced to 20 ul using a Bio-Tek ELx 405 SelectTM plate washer. […] The plates were shaken at 4° C. for 20 minutes. An aliquot of 25 ul from each well was transferred to pEGFR(Y1173) ELISA plates for analysis. Phospho-EGFR ([…]) ELISA. Solid white high-binding ELISA plates (Greiner #781074) were coated with 5 ug/ml anti-EGFR capture antibody (R&D Systems #AF231) overnight in 50 mM carbonate/bicarbonate pH 9.5 buffer. Plates were blocked with 1% BSA (Sigma #A7030) in PBS for 1 hour at room temperature. Wash steps were carried out with a Bio-Tek ELx405 SelectTM using 4 cycles of 100 ul TBS-T (20 mM Tris, 137 mM NaCl, 0.05% Tween-20) per well. […] Lysis was allowed to occur for 20 minutes on ice. A 25 ul aliquot was added to each well of the blocked ELISA plate and incubated overnight at 4° C. with gentle shaking. […] After washing, 1:2,000 anti-rabbit-HRP (Cell Signaling #7074) in 0.2% BSA/TBS-T was added and incubated for 1 hour at room temperature. Chemiluminescent detection was carried out with SuperSignal ELISA Pico substrate (ThermoScientific #37069). Signal was read on EnVision plate reader using built-in UltraLUM setting. Data Analysis. Control cells treated with EGF were set to 100% maximum response. […] With these parameters, the IC50's for each compound in each cell line was calculated using non-linear curve fitting analysis.

HEKn (EGFR WT) = HEKn (EGFR WT) (Homo sapiens, UniProt P00533); test: EGFR target modulation in HEKn (EGFR-WT) cell line (phospho-EGFR Y1173 ELISA); format: cell-based; settings: value outside parentheses
HEKn (EGFR WT), sequence (P00533 25-1210): as above
Outline: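 Read-out was Y1173 phosphorylation, measured by chemiluminescent ELISA with anti-EGFR capture of lysates. HEKn keratinocytes (wild-type EGFR) were treated with compound for 3 h.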

[1] = EGFR (L858R/T790M) with 90 min pre-incubation, read-out: IC50 (μM) Column B
[2] = EGFR (L858R/T790M) with no pre-incubation, read-out: IC50 (μM) Column A

SMILES	IC50 (H1975 (EGFR L858/T790M)) [nM]	IC50 (H3255 (EGFR L858R)) [nM]	IC50 (EGFR(L858R/T790M); [1]) [µM]	IC50 (EGFR(L858R/T790M); [2]) [µM]	IC50 (HaCaT (EGFR WT)) [nM]	IC50 (HCC827 (Del E746-A750)) [nM]	IC50 (HEKn (EGFR WT)) [nM]
Cc1cc(C(=O)Nc2nc3cccc(Cl)c3n2C2CCCCN(C(=O)/C=C/CN(C)C)C2)cc(P(C)(C)=O)n1 (single isomer, unassigned) [Example 21-9B]	314	312	0.024	0.894	> 10000		
CN(C)C/C=C/C(=O)N1CCCCC(n2c(NC(=O)c3ccnc(P(C)(C)=O)c3)nc3cccc(Cl)c32)C1 (single isomer, unassigned) [Example 21-10A]	> 10000	1540	0.572	6.05	> 10000		
CN(C)C/C=C/C(=O)N1CCCCC(n2c(NC(=O)c3ccnc(P(C)(C)=O)c3)nc3cccc(Cl)c32)C1 (single isomer, unassigned) [Example 21-10B]	421	77	0.014	0.222	6090		
Cc1cc(C(=O)Nc2nc3cccc(Cl)c3n2[C@@H]2CCCCN(C(=O)C3=CCCN(C)C3)C2)ccn1 [Example 3-16]	899	2530	0.36	0.352	> 10000		
Cc1cc(C(=O)Nc2nc3cccc(Cl)c3n2[C@@H]2CCCCN(C(=O)C3=CCN(C)CC3)C2)ccn1 [Example 3-17]	3480	6400	1.2	0.676	> 10000		
Cc1cc(C(=O)Nc2nc3cccc(Cl)c3n2[C@@H]2CCCCN(C(=O)/C=C/C(C)(C)N(C)C)C2)ccn1 [Example 3-18]	1050	719	0.108	0.135	> 10000	480	
C=CC(=O)N1CCN(C(=O)OC(C)(C)C)CC(n2c(NC(=O)c3ccnc(C)c3)nc3cccc(Cl)c32)C1 (stereo not drawn) [Example 12, tert-butyl 4-acryloyl-6-(7-chloro-2-(2-methylisonicotinamido)-1H-benzo[d]imidazol-1-yl)-1,4-diazepane-1-carboxylate]	50	111	0.016	0.271	> 10000		
C=CC(=O)N1CCNCC(n2c(NC(=O)c3ccnc(C)c3)nc3cccc(Cl)c32)C1 (stereo not drawn) [Example 13, N-(1-(1-acryloyl-1,4-diazepan-6-yl)-7-chloro-1H-benzo[d]imidazol-2-yl)-2-methylisonicotinamide]	113	312	0.113	1.63	> 10000		
C=CC(=O)N1CCN(C(C)=O)CC(n2c(NC(=O)c3ccnc(C)c3)nc3cccc(Cl)c32)C1 (stereo not drawn) [Example 14, N-(1-(1-acetyl-4-acryloyl-1,4-diazepan-6-yl)-7-chloro-1H-benzo[d]imidazol-2-yl)-2-methylisonicotinamide]	27	71	0.009	0.16	2060		
C=CC(=O)N1CCCC[C@@H](n2c(NC(=O)c3cc(C)nc(C)c3)nc3ccc(OCCN4CCCC4)c(Cl)c32)C1 [Example 15, (R)—N-(1-(1-acryloylazepan-3-yl)-7-chloro-6-(2-(pyrrolidin-1-yl)ethoxy)-1H-benzo[d]imidazol-2-yl)-2,6-dimethylisonicotinamide]	1	3	< 0.001	0.004	139	1	
Cc1cc(C(=O)Nc2nc3cccc(Cl)c3n2[C@@H]2CCCCN(C(=O)/C=C/CN(C3CC3)C3CC3)C2)ccn1 [Example 16, (R,E)-N-(7-chloro-1-(1-(4-(dicyclopropylamino)but-2-enoyl)azepan-3-yl)-1H-benzo[d]imidazol-2-yl)-2-methylisonicotinamide]	58	60	0.005	0.045	1100		
C=CC(=O)N1CCCC[C@@H](n2c(NC(=O)c3cc(C)nc(C)c3)nc3cc(CN4CC[C@H](F)C4)cc(C)c32)C1 [Example 17-158]	< 1	2	< 0.001	0.002	67		82
C=CC(=O)N1CCCC[C@@H](n2c(NC(=O)c3cc(C)nc(C)c3)nc3cc(CN4CC[C@@H](F)C4)cc(C)c32)C1 [Example 17-159]	< 1	2	< 0.001	0.002	84		70
C/C=C/C(=O)N1CCCC[C@@H](n2c(NC(=O)c3cc(C)nc(C)c3)nc3cc(CN4CC[C@H](OC)C4)ccc32)C1 [Example 17-174]	93	202	0.01	0.21	> 10000		> 10000
C=CC(=O)N1CCCC[C@@H](n2c(NC(=O)c3cc(C)nc(C)c3)nc3cc(CN4CC[C@H](OC)C4)ccc32)C1 [Example 17-175]	2	4	< 0.001	0.004	522		289
Cc1cc(C(=O)Nc2nc3cccc(Cl)c3n2[C@@H]2CCCCN(C(=O)/C=C/CN(C)C)C2)cc(P(C)(C)=O)n1 [Example 17-182]	770	422	0.022	0.472	> 10000		
Cc1cc(C(=O)Nc2nc3cccc(Cl)c3n2[C@@H]2CCCCN(C(=O)/C=C/CN(C)C(=O)OC(C)(C)C)C2)ccn1 [Example 17-184]	3740	4840	5.84	16.1	> 10000		
Cc1cc(C(=O)Nc2nc3cccc(Cl)c3n2[C@@H]2CCCCN(C(=O)/C=C/CNC3CC3)C2)ccn1 [Example 17-190]	2	3	< 0.001	0.003	47		
Cc1cc(C(=O)Nc2nc3cccc(Cl)c3n2[C@@H]2CCCCN(C(=O)/C=C/CNC(C)(C)C)C2)ccn1 [Example 17-191]	2	3	< 0.001	0.004	59		
Cc1cc(C(=O)Nc2nc3cccc(Cl)c3n2[C@@H]2CCCCN(C(=O)/C=C/CNC3(C)CC3)C2)ccn1 [Example 17-192]	2	2	< 0.001	0.003	37		
Cc1cc(C(=O)Nc2nc3cccc(Cl)c3n2[C@H]2CCCCN(C(=O)/C=C/CN(C)C)C2)cc(C)n1 [Example 17-197]	935	2000	0.117	1.67	> 10000		
